Source: US20140220134A1, “METHOD FOR TREATING DIABETES WITH EXTENDED RELEASE FORMULATION OF GLP-1 RECEPTOR AGONISTS” (Astrazeneca Pharamceuticals LP, priority 2011, published 2014)
Structures can show the parent of a compound that is named as a salt.

Legend:
[1] = Fraction of drug in microparticles and in MCT oil carrier after storage; type: physicochemical
Excerpt: Mixtures ranged from 2% to 10% w/w of the active pharmaceutical ingredient. The mixed powder was transferred to an extruder where the temperature was adjusted according to the chosen polymer. Some polymers needed higher temperatures to produce a melt with good flow properties. The extruder contained twin screws that moved clockwise to produce efficient mixing. The material was extruded through a 1.5 mm orifice, collected, cooled at room temperature, and cut into short strands about 1-2 inches long. These strands were then fed into a 12-tooth rotor mill, followed by a sieving step to produce microparticles of about 20 to 100 microns. The microparticles were collected and stored at 5° C. until further use.
Experimental samples were prepared by dispersing about 50 mg of the microparticles into 0.75 mL of a MCT oil carrier. The samples were stored at 5° C. and 25° C. for two days, two weeks, or one month, at which times representative samples were tested. The fraction of drug that remained in the microparticles and the fraction of drug that partitioned into the MCT oil carrier were determined. Briefly, the samples were centrifuged to separate the microparticles from the MCT oil carrier. Each portion was treated independently to determine the amount of drug it contained. Results are reported on the basis of the percent residing in each independent portion.

Solubility in MCT oil = type: physicochemical; details: oil or lipid
[2] = PLGA copolymer, 1 Month Storage at 5° C.
[3] = PLGA copolymer, 1 Month Storage at 25° C.
[4] = PLGA copolymer, 2 Days Storage at 5° C.
[5] = PLGA copolymer, 2 Days Storage at 25° C.
[6] = polycaprolactone/PLGA copolymer, Two Weeks Storage, 5° C.
[7] = polycaprolactone/PLGA copolymer, Two Weeks Storage, 25° C.

Compound | drug in MCT Carrier [1, 2] | drug in Microparticles [1, 2] | drug in MCT Carrier [1, 3] | drug in Microparticles [1, 3] | drug in MCT Carrier [1, 4] | drug in Microparticles [1, 4] | drug in MCT Carrier [1, 5] | drug in Microparticles [1, 5] | drug in MCT Carrier [1, 6] | drug in Microparticles [1, 6] | drug in MCT Carrier [1, 7] | drug in Microparticles [1, 7] | solubility (Solubility in MCT oil)
CN(C)c1ccc(O)c2c1C[C@H]1C[C@H]3[C@H](N(C)C)C(O)=C(C(N)=O)C(=O)[C@@]3(O)C(O)=C1C2=O [minocycline, minocycline HCl] | 0.1% | 99.9% | 0.4% | 99.6% | 0.9% | 99.1% | 0.6% | 99.4% | – | – | – | – | –
CC[C@H](C)[C@H](NC(=O)[C@@H]1CCCN1C(=O)CNC(=O)[C@H](Cc1ccccc1)NC(=O)[C@H](CC(N)=O)NC(=O)[C@H](CC(N)=O)NC(=O)[C@H](CO)NC(=O)[C@H](CO)NC(=O)[C@H](Cc1c[nH]cn1)NC(=O)[C@@H](NC(=O)[C@H](CC(C)C)NC(=O)[C@H](Cc1ccccc1)NC(=O)[C@H](CC(N)=O)NC(=O)[C@H](C)NC(=O)[C@H](CC(C)C)NC(=O)[C@H](CCCNC(=N)N)NC(=O)[C@H](CCC(N)=O)NC(=O)[C@@H](NC(=O)[C@H](C)NC(=O)[C@@H]1CSSC[C@H](NC(=O)[C@@H](N)CCCCN)C(=O)N[C@@H](CC(N)=O)C(=O)N[C@@H]([C@@H](C)O)C(=O)N[C@@H](C)C(=O)N[C@@H]([C@@H](C)O)C(=O)N1)[C@@H](C)O)C(C)C)C(=O)N[C@@H](CC(C)C)C(=O)N1CCC[C@H]1C(=O)N1CCC[C@H]1C(=O)N[C@H](C(=O)N[C@@H](CC(N)=O)C(=O)N[C@H](C(=O)NCC(=O)N[C@@H](CO)C(=O)N[C@@H](CC(N)=O)C(=O)N[C@H](C(=O)N[C@@H](Cc1ccc(O)cc1)C(N)=O)[C@@H](C)O)C(C)C)[C@@H](C)O [pramlintide] | 0.3% | 99.7% | 0.0% | 100.0% | 0.0% | 100.0% | 0.0% | 100.0% | 0.0% | 100.0% | 0.0% | 100.0% | –
O=C(O)c1ccccc1O [salicylic acid] | 0.1% | 99.9% | 0.2% | 99.8% | 1.1% | 98.9% | 0.9% | 99.1% | – | – | – | – | > 30 mg/mL
O=C([O-])c1ccccc1O.[Na+] [sodium salicylate] | 1.3% | 98.7% | 1.5% | 98.5% | 0.5% | 99.5% | 2.3% | 97.7% | – | – | – | – | –
bovine serum albumin | 0.0% | 100.0% | 0.0% | 100.0% | 0.0% | 100.0% | 0.0% | 100.0% | – | – | – | – | –
davalintide | 0.6% | 99.4% | 0.0% | 100.0% | 0.2% | 99.8% | 0.0% | 100.0% | – | – | – | – | –
insulin | 0.5% | 99.5% | 0.7% | – | – | – | – | – | – | – | – | – | –
metreleptin | 0.0% | 100.0% | 0.0% | 100.0% | 0.0% | 100.0% | 0.0% | 100.0% | – | – | – | – | –
